Experimental data reported in patent US10710986B2, “PD-1/PD-L1 inhibitors” (Gilead Sciences, Inc., priority 2018, dated 2020).
Where “and” joins values, the source holds several entries; their conditions need not be identical. Identical values can stand only once.

Experiments:
[1] = system: HBV-specific CD8^+ T cells; assay: IFN-γ and granzyme B production in HBV-specific CD8+ T cells from CHB patient PBMCs (7-day expansion and recall, flow cytometry); assay type: cell-based, human
Procedure: PBMCs were isolated from whole blood using a standard Ficoll® Paque gradient. Briefly, 25-30 mL of blood was gently overlaid on top of 15 mL Ficoll® Paque Plus solution (GE Healthcare, Chicago, Ill.) in a 50 mL Falcon tube, and centrifuged in an Allegra X-14R (Beckman Coulter, Indianapolis, Ind.) at 520 g for 20 minutes at 25° C. […] Next, the cells were centrifuged at 520 g for 5 minutes and red blood cells (RBC) lysed for 5 minutes at room temperature using RBC Lysis Buffer (eBioscience, San Diego, Calif.). […] PBMCs were either subsequently used for the T cell expansion assay, or were cryopreserved with 10% DMSO in FBS before further use.
PBMCs were seeded at 2-4×10^5 cells/well in 96-well round bottom plates (Corning, N.Y.). […] PBMCs were incubated for 7 days at 37° C. with 5% CO2 in a humidified incubator. […] To inhibit protein transport, 1 μg/mL brefeldin. A solution (Sigma) was added to each well. After overnight incubation, cells were processed for immunostaining and flow cytometry as described herein.
Washed cells were resuspended in Live/Dead Aquamine Stain (Invitrogen) per manufacturer's instructions to determine the viability of the cells by flow cytometry. Live/Dead Aqua stained PBMCs were washed twice with FACS staining buffer (1% FBS in PBS), and then incubated with 50 μL of Fc blocking reagent (BD Biosciences, Franklin Lakes, N.J.) for 10 minutes at room temperature. A mixture of antibodies (50 μL/well) described in Table 6 were added to the blocking solution for surface staining, and PBMCs were incubated with the antibodies for 40 minutes at 4° C. […] Cells were washed twice with the permeabilization reagent included in the FoxP3 staining kit and incubated with antibodies for intracellular staining of IFN-γ and GrB (Table 6) at 1.0 μg/mL. After 1 hour incubation at 4° C., PBMCs were centrifuged and washed twice before being resuspended in FACS buffer. Stained PBMCs were analyzed by flow cytometry using a BD LSRFortessa X-20 Cell Analyzer (Becton Dickinson). BD Comp Beads (BD Biosciences) were used as compensation controls. CD8^+ and CD4^+ T cells were identified by gating on the live Aquamine ^−CD3^+CD8^+ and Aquamine-CD3+CD4^+ PBMC population respectively.
Flow cytometry data was analyzed using FlowJo Flow Cytometry Analysis Software v10 (TreeStar, Ashland, Oreg.). Data was exported and statistical analysis was performed using GraphPad Prism v6 (GraphPad Software, La Jolla, Calif.). Statistical significance relative to the DMSO control was calculated by two-tailed, paired t-test.

PD-1/PD-L1 = PD-1/PD-L1 (Homo sapiens (Human), UniProt Q9NZQ7); assay: PD-1/PD-L1 biochemical protein-protein interaction assay (ALPHA); details: 0.3 nM His tagged PD-L1, 2.5 nM biotinylated Fc-PD-1, 60 minutes at 25° C., read-out: IC50 PD-L1-PD1
[2] = 650 nM, HBV core peptide-stimulated PBMCs from 14 CHB donors
[3] = PBMCs from 9 of the 14 CHB donors, compound 139 650 nM, durvalumab 10 μg/mL
[4] = average over CHB donors (14 for compound 139, 9 for durvalumab)
[5] = individual CHB donor, HBV core peptide-stimulated PBMCs, compound 139 at 650 nM

Sequence of PD-1/PD-L1 (Q9NZQ7 19-238): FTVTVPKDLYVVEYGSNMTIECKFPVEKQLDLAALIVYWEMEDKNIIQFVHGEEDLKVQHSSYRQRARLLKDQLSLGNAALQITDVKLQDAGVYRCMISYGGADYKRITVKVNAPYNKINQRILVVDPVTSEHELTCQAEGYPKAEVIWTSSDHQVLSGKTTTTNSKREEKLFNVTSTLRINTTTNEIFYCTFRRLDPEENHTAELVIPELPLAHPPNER

SMILES | IC50 (PD-1/PD-L1) | also measured
COc1nc(-c2cccc(-c3cccc(-c4cnc(CNC[C@@H]5CCC(=O)N5)c(OC)n4)c3Cl)c2Cl)cnc1CNC[C@@H]1CCC(=O)N1 [compound 139] |  | increase of frequency of GrB^+ CD8^+ T cells compared with DMSO [1, 2]: 1.2 fold; increase of frequency of IFN-γ^+ CD8^+ T cells compared with DMSO [1, 2]: 2.5 fold; increase of GrB^+ CD8^+ T cells, comparison with durvalumab [1, 3]: 1.2 fold; increase of IFN-γ^+ CD8^+ T cells, comparison with durvalumab [1, 3]: 2.5 fold; % GrB+ (GrB+ CD8+ T cells), Average [1, 4]: 33.68%; % IFN-γ+ (IFN-γ+ CD8+ T cells), Average [1, 4]: 3.13%; % GrB+ (GrB+ CD8+ T cells) [1, 5]: 47.80% and 8.78% and 50.30% and 30.67% and 28.15% and 24.10% and 45.05% and 20.20% and 33.50% and 52.67% and 18.93% and 23.23% and 55.80% and 32.30%; % IFN-γ+ (IFN-γ+ CD8+ T cells) [1, 5]: 2.63% and 0.94% and 0.41% and 0.61% and 3.06% and 0.90% and 3.28% and 4.69% (2×) and 0.30% and 7.74% and 1.86% and 11.17% and 1.53%
COc1nc(-c2cccc(-c3cccc(-c4cnc(CN5CC[C@@H](CO)C5)c(OC)n4)c3Cl)c2Cl)cnc1CNC[C@@H]1CCC(=O)N1 [compound 627] | 0.081 nM | 
COc1nc(-c2cccc(-c3cccc(-c4cc(C)c(CNC[C@@H]5CCC(=O)N5)c(OC)n4)c3Cl)c2Cl)cnc1CNC[C@@H]1CCC(=O)N1 [compound 628] | 0.064 nM | 
COc1nc(-c2cccc(-c3cccc(-c4cnc(CN5CC(C)(O)C5)c(OC)n4)c3Cl)c2Cl)cnc1CN1CC(O)C1 [compound 629] | 0.083 nM | 
COc1nc(-c2cccc(-c3cccc(-c4cnc(CN)c(OC)n4)c3Cl)c2Cl)ccc1CNC[C@@H]1CCC(=O)N1 [compound 630] | 0.437 nM | 
COc1nc(-c2cccc(-c3cccc(-c4cnc(CN5CC(C)(O)C5)c(OC)n4)c3Cl)c2Cl)ccc1CNC[C@@H]1CCC(=O)N1 [compound 631] | 0.064 nM | 
COc1nc(-c2cccc(-c3cccc(-c4cnc(CN5CC6(C5)CN(C(C)=O)C6)c(OC)n4)c3Cl)c2Cl)ccc1CNC[C@@H]1CCC(=O)N1 [compound 632] | 0.172 nM | 
COc1nc(-c2cccc(-c3cccc(-c4cnc(CN5CC6(CNC(=O)C6)C5)c(OC)n4)c3Cl)c2Cl)ccc1CNC[C@@H]1CCC(=O)N1 [compound 633] | 0.064 nM | 
COc1nc(-c2cccc(-c3cccc(-c4cnc(CN5CCC(CO)(CO)C5)c(OC)n4)c3Cl)c2Cl)cnc1CN1CCC(CO)(CO)C1 [compound 634] | 0.064 nM | 
COc1nc(-c2cccc(-c3cccc(-c4cnc(CN5CC(C(C)(C)O)C5)c(OC5CC5)n4)c3Cl)c2Cl)ccc1CN1CC(C(C)(C)O)C1 [compound 635] | 0.098 nM | 
COc1nc(-c2cccc(-c3cccc(-c4cnc(CN5CC6(CCC(=O)N6)C5)c(OC5CC5)n4)c3Cl)c2Cl)ccc1CN1CC2(CCC(=O)N2)C1 [compound 636] | 0.12 nM | 
COc1nc(-c2cccc(-c3cccc(-c4cnc(CN5CC6(CNC(=O)C6)C5)c(OC5CC5)n4)c3Cl)c2Cl)ccc1CN1CC2(CNC(=O)C2)C1 [compound 637] | 0.134 nM | 
COc1nc(-c2cccc(-c3cccc(-c4cnc(CNC[C@@H]5CCC(=O)N5)c(OC5CC5)n4)c3Cl)c2Cl)ccc1CNC[C@@H]1CCC(=O)N1 [compound 638] | 0.079 nM | 
COc1nc(-c2cccc(-c3cccc(-c4cnc(CN[C@H]5C[C@@H](C(N)=O)C5)c(OC)n4)c3Cl)c2Cl)ccc1CNC[C@@H]1CNC(=O)C1 [compound 639] | 0.066 nM | 
COc1nc(-c2cccc(-c3cccc(-c4cnc(CN[C@H]5CCC[C@H]5O)c(OC)n4)c3Cl)c2Cl)ccc1CNC[C@@H]1CNC(=O)C1 [compound 640] | 0.167 nM | 
COc1nc(-c2cccc(-c3cccc(-c4cnc(C5=NCCN5)c(OC)n4)c3Cl)c2Cl)ccc1CN1CC2(CCC(=O)N2)C1 [compound 641] | 0.064 nM | 
COc1nc(-c2cccc(-c3cccc(-c4cnc(C5=NCCN5)c(OC)n4)c3Cl)c2Cl)ccc1CN1CC(C)(O)C1 [compound 642] | 0.064 nM | 
COc1nc(-c2cccc(-c3cccc(-c4cnc(C5=NC[C@H](C)N5)c(OC)n4)c3Cl)c2Cl)ccc1CNC[C@@H]1CCC(=O)N1 [compound 643] | 0.064 nM | 
COc1nc(-c2cccc(-c3cccc(-c4cnc(C5=NC[C@@H](C)N5)c(OC)n4)c3Cl)c2Cl)ccc1CNC[C@@H]1CCC(=O)N1 [compound 644] | 0.093 nM | 

SMILES | IC50 (PD-1/PD-L1) | also measured
COc1nc(-c2cccc(-c3cccc(-c4cnc(C5=NCCN5)c(OC)n4)c3Cl)c2Cl)ccc1CNC[C@@H]1CCC(=O)N1 [compound 645] | 0.064 nM | 
COc1nc(-c2cccc(-c3cccc(-c4cnc(C5=NC[C@H](C)N5)c(OC)n4)c3Cl)c2Cl)cnc1CNC[C@@H]1CCC(=O)N1 [compound 646] | 0.064 nM | 
COc1nc(-c2cccc(-c3cccc(-c4cnc(C5=NC[C@@H](C)N5)c(OC)n4)c3Cl)c2Cl)cnc1CNC[C@@H]1CCC(=O)N1 [compound 647] | 0.064 nM | 
COc1nc(-c2cccc(-c3cccc(-c4cnc(CN[C@H]5CC[C@@H](CO)C5)c(OC)n4)c3Cl)c2Cl)cnc1CNC[C@@H]1CCC(=O)N1 [compound 648] | 0.08 nM | 
COc1nc(-c2cccc(-c3cccc(-c4cnc(CN5CC6(CCC(=O)N6)C5)c(OC)n4)c3Cl)c2F)ccc1CN1CC2(CCC(=O)N2)C1 [compound 649] | 0.128 nM | 
COc1nc(-c2cccc(-c3cccc(-c4cc(C)c(CN5CC6(CCC(=O)N6)C5)c(OC)n4)c3F)c2Cl)cnc1CN1CC2(CCC(=O)N2)C1 [compound 650] | 0.064 nM | 
COc1nc(-c2cccc(-c3cccc(-c4cc(C)c(CN5CC6(CNC(=O)C6)C5)c(OC)n4)c3F)c2Cl)cnc1CN1CC2(CNC(=O)C2)C1 [compound 651] | 0.064 nM | 
COc1nc(-c2cccc(-c3cccc(-c4cc(C)c(CNC[C@H]5C[C@H](O)C5)c(OC)n4)c3Cl)c2Cl)cnc1CNC[C@@H]1CCC(=O)N1 [compound 652] | 0.12 nM | 
COc1nc(-c2cccc(-c3cccc(-c4cc(C)c(CN5CC6(C5)CN(C(C)=O)C6)c(OC)n4)c3Cl)c2Cl)cnc1CNC[C@@H]1CCC(=O)N1 [compound 653] | 0.064 nM | 
COc1nc(-c2cccc(-c3cccc(-c4cc(C)c(CN5CC(C(=O)O)C6(CCOC6)C5)c(OC)n4)c3Cl)c2Cl)cnc1CNC[C@@H]1CCC(=O)N1 (stereo partly drawn) [compound 654] | 0.071 nM | 
COc1nc(-c2cccc(-c3cccc(-c4cc(C)c(CN5C[C@@H]6CCC[C@]6(C(=O)O)C5)c(OC)n4)c3Cl)c2Cl)cnc1CNC[C@@H]1CCC(=O)N1 [compound 655] | 0.064 nM | 
COc1nc(-c2cccc(-c3cccc(-c4cnc(CNC[C@H]5C[C@H](O)C5)c(OC)n4)c3Cl)c2Cl)ccc1CNC[C@@H]1CCC(=O)N1 [compound 656] | 0.167 nM | 
COc1nc(-c2cccc(-c3cccc(-c4cnc(CN5CC(OCC(N)=O)C5)c(OC)n4)c3Cl)c2Cl)cnc1CN1CC(OCC(N)=O)C1 [compound 657] | 0.064 nM | 
COc1nc(-c2cccc(-c3cccc(-c4cnc(CNC[C@@H]5CCC(=O)N5)c(OC)n4)c3Cl)c2Cl)cnc1CNCC1CCNC1=O (stereo partly drawn) [compound 658] | 0.196 nM | 
COc1nc(-c2cccc(-c3cccc(-c4cnc(CNC[C@@H]5CCC(=O)N5)c(OC)n4)c3Cl)c2Cl)cnc1CNCC1CCNC(=O)C1 (stereo partly drawn) [compound 659] | 0.121 nM | 
COc1nc(-c2cccc(-c3cccc(-c4cnc(CNCC5CCNC(=O)C5)c(OC)n4)c3Cl)c2Cl)cnc1CNCC1CCNC(=O)C1 (stereo not drawn) [compound 660] | 0.135 nM | 
COc1nc(-c2cccc(-c3cccc(-c4cnc(CNCC5CCNC5=O)c(OC)n4)c3Cl)c2Cl)cnc1CNCC1CCNC1=O (stereo not drawn) [compound 661] | 0.064 nM | 
COc1nc(-c2cccc(-c3cccc(-c4cnc(CN5CC6(C5)CN(C(C)=O)C6)c(OC)n4)c3Cl)c2C)cnc1CN1CC2(C1)CN(C(C)=O)C2 [compound 662] | 0.082 nM | 
COc1nc(-c2cccc(-c3cccc(-c4cnc(CN5CC[C@@H](CNC(C)=O)C5)c(OC)n4)c3Cl)c2Cl)cnc1CN1CC[C@@H](CNC(C)=O)C1 [compound 663] | 0.281 nM | 
